Legend:
Type in all cases: in vivo
[1] = Synergy of the formulations when mixed with conventional chemical fungicides; conditions: contact fungicide
tropical sod webworms = test: Example 29: survival of tropical sod webworm larvae
Protocol: (§1) • 1) Larvae were obtained from Benzon Research Inc. • 2) 5 larvae/container and 3 containers=1 replication • 3) Treatments=1) Control • 2) 2-pack formulation at 5% dilution • 3) Cyfluthrin (insecticide), Al=0.75%, 3 fl oz/gal H2O (22 mL/L) • 4) Container=760 ml plastic bowl with lid containing moist filter paper on bottom and grass clippings • 5) St. Augustinegrass clippings dipped into respective fungicide treatment, drained to dry and put into container • 6) Hold 4 days at 25° C. and measure survival • 7) 7 replications of small larvae (2-10 mm) tested • 8) 6 replications of medium larvae (11-20 mm) tested • 9) 6 replications of large larvae (21-30 mm) tested • 10) Statistical analysis=Least Significant Difference (LSD) test Results:
Similar testing was conducted to determine the efficacy of embodiments of the 2-pack formulation to kill all sizes larvae (small, medium and large) of tropical sod webworms.

[2] = tested on: fall armyworms (Spodoptera frugiperda); test: Example 29: survival of fall armyworm larvae on treated grass clippings; conditions: 5 larvae/container, 4 days at 25° C.
Protocol: The efficacy of an embodiment of the 2-pack formulation against different larval stages of fall armyworms (Spodoptera frugiperda) was determined under laboratory conditions. Embodiments of the invention were compared to a conventional pesticide Cyfluthrin.
as §1, with “Results: […]” for “Results:”

N#Cc1c(Cl)c(Cl)c(Cl)c(C#N)c1Cl [chlorothalonil]
synergistic effect when mixed with embodiments of the invention [1]: synergistic effect was not observed

CC1(C)C(C=C(Cl)Cl)C1C(=O)OC(C#N)c1ccc(F)c(Oc2ccccc2)c1 (stereo not shown) [Cyfluthrin]
Mean survival, Large larvae (tropical sod webworms; Large sod webworm larvae): 0.3 B | Mean survival, Medium larvae (tropical sod webworms; Medium sod webworm larvae): 0 B | Mean survival, Small larvae (tropical sod webworms; Small sod webworm larvae): 0 B | Mean survival, Large larvae ([2]; large larvae (21-30 mm)): 0 B | Mean survival, Medium larvae ([2]; medium larvae (11-20 mm)): 0 B | Mean survival, Small larvae ([2]; small larvae (2-10 mm)): 0 B

— patent US9485988B2, “Turfgrass fungicide formulation with pigment” (Suncor Energy Inc., priority 2008, dated 2016)
